EC50 data for 30 compounds are collected here from US9309236B2, “PI-kinase inhibitors with broad spectrum anti-infective activity” (The Board of Trustees of the Leland Stanford Junior …, priority 2011, dated 2016).

Structures are written as SMILES.

Usually EC50 stands for the concentration giving half of the maximal effect.

For the first test, the system named is HCV genotype 2a. The test can be described thus: microbe, parasite or virus in culture. The conditions noted are these: HCV genotype 2a in Huh7.5 cells, luciferase reporter assay; read-out: 2a EC50. The test is classed as cell-based. The procedure:
Anti-HCV assays are performed as described by Cho et al. “Identification of a class of HCV inhibitors directed against the nonstructural protein NS4B.” Sci. Transl.
The compounds of Table 1 were prepared according to the methods described above.
A general note: Reporter assays use an easily measured gene product as a stand-in for the process of interest.
For `COc1ccc(-c2sc(NC(=O)CC3CCCCC3)nc2C)cc1S(=O)(=O)Nc1cccc(O)c1` [AB4114], the EC50 lay within 0.2 to 1 µM.

Staying with this test, now noted: Hepatitis C virus, Huh7.5, HCV genotype 2a in Huh7.5 cells, luciferase reporter assay; read-out: 2a EC50.
Turning to `COc1ccc(-c2sc(NC3CCCCCC3)nc2C)cc1S(=O)(=O)Nc1cccc(O)c1` [AB4139], the EC50 lay within 0.2 to 1 µM.

As to `COc1ccc(-c2sc(NC(=O)CC3CCCC3)nc2C)cc1S(=O)(=O)Nc1cnc(Cl)c(C)c1` [AB4108], the EC50 is 0.2 to 1 µM.

`COc1ccccc1NS(=O)(=O)c1cc(-c2sc(NC(=O)C3CCCC3)nc2C)ccc1OC` [AB4051]: the EC50 is 0.2 to 1 µM.

As for `COc1ccc(-c2sc(NC(=O)CC3CCCCC3)nc2C)cc1S(=O)(=O)Nc1cccc(O)c1` [AB3826], the EC50 is less than 0.2 µM.

Regarding `COc1ccc(-c2sc(NC(=O)C3CCCC3)nc2C)cc1S(=O)(=O)Nc1cnc(OC)c(C)c1` [AB3864], the 50% effective concentration (EC50) lay within 0.2 to 1 µM.

Take `COc1ccc(NS(=O)(=O)c2cc(-c3sc(NC4CCCCC4)nc3C)ccc2OC)c(OC)n1` [AB4053]: the EC50 lay in the range of 0.2 to 1 µM.

Turning to `COc1ccc(-c2sc(NC3CCCCC3)nc2C)cc1S(=O)(=O)NC1CCNCC1` [AB4173], the concentration for a half-maximal effect (EC50) was greater than 1 µM.

`COc1ccc(-c2sc(NC(=O)C3CCCC3)nc2C)cc1S(=O)(=O)NC1CCNCC1` [AB4178]: the concentration giving a half-maximal response (EC50) was greater than 1 µM.

With `COc1ccc(-c2sc(NCC3CCCCC3)nc2C)cc1S(=O)(=O)NCC1CCNCC1` [AB4228], the EC50 is greater than 1 µM.

With `COc1ccc(-c2sc(NC(=O)C3CCCC3)nc2C)cc1S(=O)(=O)Nc1ccc(Cl)nc1` [AB4050], the EC50 fell in the range of 0.2 to 1 µM.

In the case of `COc1ccc(-c2sc(CC3CCCCC3)nc2C)cc1S(=O)(=O)Nc1cnc(Cl)c(C)c1` [AB4239], the EC50 was in the range of 0.2 to 1 µM.

For the compound `COc1ccc(-c2sc(NC3CCCCC3)nc2C)cc1S(=O)(=O)Nc1cnc(Cl)c(C)c1` [AB3946], the EC50 is 0.2 to 1 µM.

On to `COc1ccc(-c2sc(CC3CCCCC3)nc2C)cc1S(=O)(=O)NC1CCNCC1` [AB4240], for which the EC50 was greater than 1 µM.

`COc1ccc(-c2sc(CC3CCCCC3)nc2C)cc1S(=O)(=O)Nc1ccc(Cl)c(F)c1` [AB4242]: the EC50 was in the range of 0.2 to 1 µM.

Turning to `COc1ccc(-c2sc(NC(=O)CC3CCCCC3)nc2C)cc1S(=O)(=O)Nc1cnc(F)cc1C` [AB4116], the EC50 lay within 0.2 to 1 µM.

As to `COc1ccc(-c2sc(NC3CCCCC3)nc2C)cc1S(=O)(=O)NC1CCCNC1` (stereo not drawn) [AB4174], the concentration for a half-maximal effect (EC50) is greater than 1 µM.

Take `COc1ccc(-c2sc(CC3CCCCC3)nc2C)cc1S(=O)(=O)Nc1ccc(Cl)c(C)c1` [AB4243]: the EC50 is 0.2 to 1 µM.

As for `COc1cc(C)c(NS(=O)(=O)c2cc(-c3sc(NC(C)C)nc3C)ccc2OC)cn1` [AB3979], the EC50 lay in the range of 0.2 to 1 µM.

As to `COc1ccc(-c2sc(NCC3CCCCC3)nc2C)cc1S(=O)(=O)Nc1cnc(Cl)c(C)c1` [AB4226], the EC50 lay within 0.2 to 1 µM.

Regarding `COc1cc(C)c(NS(=O)(=O)c2cc(-c3sc(NC(=O)CC4CCCCC4)nc3C)ccc2OC)cn1` [AB4112], the EC50 lay within 0.2 to 1 µM.

For `COc1ccc(NS(=O)(=O)c2cc(-c3sc(NC(=O)CC4CCCC4)nc3C)ccc2OC)c(C)c1` [AB4110], the EC50 fell in the range of 0.2 to 1 µM.

As for `COc1ccc(-c2sc(NCC3CCCCC3)nc2C)cc1S(=O)(=O)NC1CCCNC1` (stereo not drawn) [AB4227], the EC50 was greater than 1 µM.

`COc1ccc(-c2sc(NC(=O)CC3CCCC3)nc2C)cc1S(=O)(=O)Nc1cnc(F)cc1C` [AB4111]: the 50% effective concentration (EC50) was 0.2 to 1 µM.

As to `COc1ccc(-c2sc(NCC3CCCCC3)nc2C)cc1S(=O)(=O)Nc1cnc(F)cc1C` [AB4225], the EC50 lay within 0.2 to 1 µM.

In the case of `COc1ccc(-c2sc(NC(=O)CC3CCCCC3)nc2C)cc1S(=O)(=O)Nc1cnc(Cl)c(C)c1` [AB4113], the EC50 is 0.2 to 1 µM.

Consider `COc1ccc(-c2sc(NC3CCCCCC3)nc2C)cc1S(=O)(=O)Nc1cnc(Cl)c(C)c1` [AB4141], for which the concentration for a half-maximal effect (EC50) was in the range of 0.2 to 1 µM.

As to `COc1ccc(-c2sc(NC(C)C)nc2C)cc1S(=O)(=O)Nc1cnc(Cl)c(C)c1` [AB3977], the concentration giving a half-maximal response (EC50) was in the range of 0.2 to 1 µM.

`COc1ccc(-c2sc(CC3CCCCC3)nc2C)cc1S(=O)(=O)NC1CCCNC1` (stereo not drawn) [AB4241]: the EC50 was greater than 1 µM.

For the compound `COc1ccc(-c2sc(NCC3CCCCC3)nc2C)cc1S(=O)(=O)Nc1cnc(Cl)c(F)c1` [AB4229], the EC50 was greater than 1 µM.
